US20050008558A1, “Fullerene derivatives and processes for producing the same” (Eiichi NAKAMURA, priority 2003, published 2005)
In brackets after ≈: the same amount, converted by molar mass.

Key:
[1] = Oxidation test: toluene solutions allowed to stand in air at room temperature, HPLC peak area ratio; assay type: physicochemical; conditions: for Peak area ratio (%) of starting compound to whole peak area: toluene solution 0.33 mg/mL, in air, HPLC UV 290 nm, time 0 day (initial); for Change in peak area ratio on preservation as a solution (in words): long period of time
From the text: The stability in air of the fullerene derivatives of the present invention may be confirmed, for example, by analyzing the change in quality thereof with time by HPLC. More specifically, the stability in air can be determined as follows. That is, a toluene solution of the fullerene derivatives of the present invention which is allowed to stand in air at room temperature, is subjected to HPLC using an octadecyl-bonded silica gel column (hereinafter referred to merely as “ODS” column), an eluent composed of toluene and methanol and a UV wavelength of 290 nm to measure the rate of reduction in area ratio of a peak attributed to the fullerene derivatives to whole peaks as observed. Concretely, it can be evaluated by the stability in air of solution of fullerene derivative according to the present invention to the solution of same fullerene derivative to the present one except for having a hydrogen atom on cyclopentadiene ring of fullerene skeleton, for example, a C60Ph5CH3 solution to a C60Ph5H solution (Ph represents a phenyl group). For example, the rate of reduction in peak area ratio of the fullerene derivatives according to the present invention is usually 1/20 or lower, preferably 1/100 or lower than that of the case where one having a hydrogen atom on cyclopentadiene ring, namely C60Ph5H, is used under the same conditions.
90 mL of a toluene solution of C60Ph5H (0.33 mg/mL) and 90 mL of a toluene solution of C60Ph5Me obtained in Example 10 (0.33 mg/mL) were respectively prepared and allowed to stand in air at room temperature. The prepared solutions were sampled in an amount of 0.5 mL for each every several days, and subjected to HPLC analysis to examine the change in quality thereof with time. The HPLC analysis conditions were ODS; column size: 150 mm×4.6 mmφ; eluent: toluene/methanol=4/6; flow rate: 1.0 mL/min; detector used: UV 290 nm.

[2] = Solubility in organic solvents at 25° C.
[3] = toluene solution in air, time 1 day
[4] = toluene solution in air, time 2 days
[5] = toluene solution in air, time 6 days
[6] = toluene solution in air, time 8 days
[7] = toluene solution in air, time 9 days
[8] = toluene solution in air, time 14 days
[9] = toluene solution in air, time 15 days
[10] = toluene solution in air, time 16 days
[11] = toluene solution in air, time 20 days
[12] = toluene solution in air, time 22 days
[13] = toluene solution in air, time 23 days
[14] = toluene solution in air, time 63 days

Row | Structure (SMILES) | Peak area ratio (%) of starting compound to whole peak area [1] | Change in peak area ratio on preservation as a solution (in words) ([1]; toluene solution in air) | Peak area ratio (%) [1, 3] | Peak area ratio (%) [1, 4] | Peak area ratio (%) [1, 5] | Peak area ratio (%) [1, 6] | Peak area ratio (%) [1, 7] | Peak area ratio (%) [1, 8] | Peak area ratio (%) [1, 9] | Peak area ratio (%) [1, 10] | Peak area ratio (%) [1, 11] | Peak area ratio (%) [1, 12] | Peak area ratio (%) [1, 13] | Peak area ratio (%) [1, 14] | other results
1 | CC12C3=C4C5=C1C1(c6ccccc6)c6c7c8c9c(c%10c%11c%12c(c%13c%14c%15c(c%16c%17c%18c(c1c1c6c6c8c8c%19c9c%11c9c%11c%12c%14c%12c%14c%15c%17c%15c%17c%18c1c1c6c8c6c(c9%19)c(c%11%12)c(c%14%15)c6c1%17)C%162c1ccccc1)C3%13c1ccccc1)C4%10c1ccccc1)C57c1ccccc1 (stereo not shown) [Example C60Ph5Me, 1-methyl-6,9,12,15,18-pentaphenyl-1,6,9,12,15,18-hexahydro-(C60-Ih)[5,6]fullerene] | 98.8% | kept substantially unchanged | 98.4% | 98.9% | 98.4% | 98.7% | 98.5% | 98.3% | 98.9% | 98.4% | 98.4% | 97.1% | 97.4% | 98.3% | Peak area ratio (%) ([1]; toluene solution in air, time 3 days): 98.8%; Peak area ratio (%) ([1]; toluene solution in air, time 7 days): 98.3%; Peak area ratio (%) ([1]; toluene solution in air, time 10 days): 98.0%; Peak area ratio (%) ([1]; toluene solution in air, time 21 days): 98.4%; Peak area ratio (%) ([1]; toluene solution in air, time 25 days): 98.5%; Peak area ratio (%) ([1]; toluene solution in air, time 31 days): 97.9%; Peak area ratio (%) ([1]; toluene solution in air, time 38 days): 98.2%; Peak area ratio (%) ([1]; toluene solution in air, time 48 days): 98.1%
2 | c1ccc(C23C4=C5C6C7=C4C4(c8ccccc8)c8c2c2c9c3c3c%10c%11c(c%12c%13c%14c(c%15c%16c%17c(c4c4c8c8c2c2c%18c9c%10c9c%10c%11c%13c%11c%13c%14c%16c%14c%16c%17c4c4c8c2c2c(c%189)c(c%10%11)c(c%14%13)c2c4%16)C7%15c2ccccc2)C%126c2ccccc2)C53c2ccccc2)cc1 (stereo not shown) [Example C60Ph5H] | 98.5% | considerable reduction in peak area ratio | 97.5% | 96.7% | 94.4% | 93.2% | 92.9% | 90.6% | 90.1% | 89.6% | 88.6% | 87.4% | 87.4% | 70.1% | Rate of reduction of the peak area ratio ([1]; toluene solution in air): about 0.45 % per day; Peak area ratio (%) ([1]; toluene solution in air, time 5 days): 95.0%; Peak area ratio (%) ([1]; toluene solution in air, time 12 days): 92.0%; Peak area ratio (%) ([1]; toluene solution in air, time 13 days): 91.7%; Peak area ratio (%) ([1]; toluene solution in air, time 26 days): 85.9%; Peak area ratio (%) ([1]; toluene solution in air, time 30 days): 84.3%; Peak area ratio (%) ([1]; toluene solution in air, time 33 days): 81.5%; Peak area ratio (%) ([1]; toluene solution in air, time 37 days): 80.4%; Peak area ratio (%) ([1]; toluene solution in air, time 43 days): 78.9%; Peak area ratio (%) ([1]; toluene solution in air, time 51 days): 74.1%; Peak area ratio (%) ([1]; toluene solution in air, time 58 days): 71.4%; Peak area ratio (%) ([1]; toluene solution in air, time 65 days): 70.1%
3 | CCOC(=O)CCCC12C3=C4C5=C1C1(C)c6c7c8c9c(c%10c%11c%12c(c%13c%14c%15c(c%16c%17c%18c(c1c1c6c6c8c8c%19c9c%11c9c%11c%12c%14c%12c%14c%15c%17c%15c%17c%18c1c1c6c8c6c(c9%19)c(c%11%12)c(c%14%15)c6c1%17)C%162C)C3%13C)C4%10C)C57C (stereo not shown) [C60Me5—(CH2)3CO2Et, 1-(3-(ethoxycarbonyl)propyl)-6,9,12,15,18-pentamethyl-1,6,9,12,15,18-hexahydro-(C60-Ih)[5,6]fullerene] |  |  |  |  |  |  |  |  |  |  |  |  |  |  | Solubility in chloroform (CHCl3) ([2]; CHCl3, 25° C.): 35.9 mg/mL (≈ 39.4 mM); Solubility in N,N-dimethylformamide (DMF) ([2]; DMF, 25° C.): 15.4 mg/mL (≈ 16.9 mM); Solubility in ethyl acetate (EtOAc) ([2]; EtOAc, 25° C.): 3.9 mg/mL (≈ 4.28 mM); Solubility in tetrahydrofuran (THF) ([2]; THF, 25° C.): 103.0 mg/mL (≈ 113 mM)
